In the supplement of paper PMC12406974:

Tests used:
Experiment in all cases: maximum observed lethal fraction; higher = more cell death
U2OS PTBP1-KO = tested on: U2OS PTBP1-KO
U2OS BAX/BAK1 DKO = tested on: U2OS BAX/BAK1 DKO
U2OS BCL2L12-KO = tested on: U2OS BCL2L12-KO
U2OS = tested on: U2OS
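Note: FLICK assay: SYTOX Green fluorescence of dead cells tracked over time after drugging in 96-well plates, with total cell counts taken from Triton X-100 lysed wells.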

Nc1ncnc2c1ncn2[C@@H]1O[C@H](CO)C[C@H]1O [Cordycepin]
maximum observed lethal fraction
Conditions	0.1 µM	0.316 µM	1 µM	3.16 µM	10 µM	31.6 µM	100 µM
U2OS	0.0524	0.0543	0.0522	0.0545	0.054	0.0774	0.451
U2OS BAX/BAK1 DKO	0.0507	0.0537	0.0531	0.0551	0.0542	0.0698	0.072
U2OS BCL2L12-KO	0.0657	0.0642	0.064	0.068	0.0693	0.0825	0.616
U2OS PTBP1-KO	0.068	0.0684	0.0659	0.0646	0.0665	0.0847	0.517

C#C[C@@]1(O)[C@@H](CO)O[C@@H](n2ccc(N)nc2=O)[C@@H]1O [Ethynylcytidine]
maximum observed lethal fraction
Conditions	0.01 µM	0.0316 µM	0.1 µM	0.316 µM	1 µM	3.16 µM	10 µM
U2OS	0.0536	0.0612	0.071	0.0947	0.523	0.868	0.787
U2OS BAX/BAK1 DKO	0.0536	0.059	0.0745	0.0801	0.0819	0.0878	0.0906
U2OS BCL2L12-KO	0.068	0.0771	0.0843	0.0999	0.323	0.706	0.715
U2OS PTBP1-KO	0.0691	0.0709	0.0864	0.0904	0.101	0.329	0.244

COc1cc([C@@H]2c3cc4c(cc3[C@@H](O[C@@H]3O[C@@H]5CO[C@@H](C)O[C@H]5[C@H](O)[C@H]3O)[C@H]3COC(=O)[C@H]23)OCO4)cc(OC)c1O [Etoposide]
maximum observed lethal fraction
Conditions	0.0316 µM	0.1 µM	0.316 µM	1 µM	3.16 µM	10 µM	31.6 µM
U2OS	0.0568	0.0636	0.0687	0.0712	0.0784	0.31	0.601
U2OS BAX/BAK1 DKO	0.055	0.0596	0.0706	0.0746	0.0695	0.0871	0.0793
U2OS BCL2L12-KO	0.0627	0.0728	0.083	0.0936	0.0967	0.341	0.629
U2OS PTBP1-KO	0.0736	0.0782	0.0848	0.0897	0.0981	0.384	0.649

CN1CC[C@H](c2c(O)cc(O)c3c(=O)cc(-c4ccccc4Cl)oc23)[C@H](O)C1 [Flavopiridol]
maximum observed lethal fraction
Conditions	0.01 µM	0.0316 µM	0.1 µM	0.316 µM	1 µM	3.16 µM	10 µM
U2OS	0.0575	0.0639	0.486	0.528	0.552	0.501	0.356
U2OS BAX/BAK1 DKO	0.0607	0.0712	0.208	0.0919	0.093	0.092	0.0925
U2OS BCL2L12-KO	0.0552	0.0619	0.1	0.279	0.298	0.295	0.249
U2OS PTBP1-KO	0.0606	0.067	0.099	0.198	0.282	0.247	0.198

COC(=O)C[C@](O)(CCCC(C)(C)O)C(=O)O[C@@H]1C(OC)=C[C@]23CCCN2CCc2cc4c(cc2[C@H]13)OCO4 [Homoharringtonine]
maximum observed lethal fraction
Conditions	0.01 µM	0.0316 µM	0.1 µM	0.316 µM	1 µM	3.16 µM	10 µM
U2OS	0.0607	0.0942	0.296	0.395	0.578	0.692	0.722
U2OS BAX/BAK1 DKO	0.0663	0.099	0.0992	0.106	0.112	0.102	0.106
U2OS BCL2L12-KO	0.0701	0.0909	0.0937	0.102	0.0962	0.115	0.21
U2OS PTBP1-KO	0.0765	0.165	0.0974	0.109	0.186	0.184	0.197

CC(=O)[C@]1(O)Cc2c(O)c3c(c(O)c2[C@@H](O[C@H]2C[C@H](N)[C@H](O)[C@H](C)O2)C1)C(=O)c1ccccc1C3=O [Idarubicin]
maximum observed lethal fraction
Conditions	0.001 µM	0.00316 µM	0.01 µM	0.0316 µM	0.1 µM	0.316 µM	1 µM
U2OS	0.0637	0.0722	0.0707	0.166	0.666	0.792	0.604
U2OS BAX/BAK1 DKO	0.0756	0.0795	0.0849	0.0871	0.212	0.18	0.193
U2OS BCL2L12-KO	0.0766	0.088	0.0897	0.231	0.74	0.724	0.321
U2OS PTBP1-KO	0.077	0.0792	0.0832	0.2	0.633	0.589	0.305
